For this experiment, the system named is MV-4-11 cells. As to the kind of experiment: Gene expression microarray analysis (Affymetrix PrimeView) and GSEA. Further details: RFU PODN (11730768_x_at) / Fold change /veh PODN (11730768_x_at) / RFU LINC00158 (11744669_a_at) / Fold change /veh LINC00158 (11744669_a_at) / RFU DUSP10 (11751237_a_at) / Fold change /veh DUSP10 (11751237_a_at) / RFU ID3 (11757404_x_at) / Fold change /veh ID3 (11757404_x_at) / RFU PLEKHG5 (11737974_s_at) / Fold change /veh PLEKHG5 (11737974_s_at) / RFU LRRC4B (11730491_at) / Fold change /veh LRRC4B (11730491_at) / RFU GIMAP4 (11747438_a_at) / Fold change /veh GIMAP4 (11747438_a_at) / RFU KRT8 (11758183_x_at) / Fold change /veh KRT8 (11758183_x_at) / RFU CNN1 (11734310_a_at) / Fold change /veh CNN1 (11734310_a_at) / RFU VPS37D (11726825_at) / Fold change /veh VPS37D (11726825_at) / RFU C10orf10 (11716522_x_at) / Fold change /veh C10orf10 (11716522_x_at) / RFU KIR2DL2 /// KIR2DL4 /// KIR2DL5A /// KIR2DL5B /// KIR2DS1 /// KIR2DS2 /// KIR2DS3 /// KIR2DS4 /// KIR3DL3 /// KIR3DL3 /// KIR3DS1 (11738374_at) / Fold change /veh KIR2DL2 /// KIR2DL4 /// KIR2DL5A /// KIR2DL5B /// KIR2DS1 /// KIR2DS2 /// KIR2DS3 /// KIR2DS4 /// KIR3DL3 /// KIR3DL3 /// KIR3DS1 (11738374_at) / RFU C1QL1 (11718748_at) / Fold change /veh C1QL1 (11718748_at) / RFU TMPRSS4 (11747572_a_at) / Fold change /veh TMPRSS4 (11747572_a_at) / RFU HAMP (11756126_x_at) / Fold change /veh HAMP (11756126_x_at) / RFU RNFT2 (11725882_a_at) / Fold change /veh RNFT2 (11725882_a_at) / RFU NR4A2 (11747474_a_at) / Fold change /veh NR4A2 (11747474_a_at) / RFU ABCC12 (11746883_a_at) / Fold change /veh ABCC12 (11746883_a_at) / RFU TMEM136 (11760407_x_at) / Fold change /veh TMEM136 (11760407_x_at) / RFU CLDN22 /// WWC2 (11732394_at) / Fold change /veh CLDN22 /// WWC2 (11732394_at) / RFU HLA-DPB1 (11760878_x_at) / Fold change /veh HLA-DPB1 (11760878_x_at) / RFU SPINT1 (11716480_a_at) / Fold change /veh SPINT1 (11716480_a_at) / RFU GAP43 (11754022_s_at) / Fold change /veh GAP43 (11754022_s_at) / RFU A4GNT (11735810_at) / Fold change /veh A4GNT (11735810_at) / RFU PRB3 (11715151_x_at) / Fold change /veh PRB3 (11715151_x_at) / RFU TUBB4B (11761932_at) / Fold change /veh TUBB4B (11761932_at) / RFU CAPN14 (11732068_a_at) / Fold change /veh CAPN14 (11732068_a_at) / RFU TMCC2 (11721928_a_at) / Fold change /veh TMCC2 (11721928_a_at) / RFU IRGQ (11745062_a_at) / Fold change /veh IRGQ (11745062_a_at) / RFU FAM174B (11720279_a_at) / Fold change /veh FAM174B (11720279_a_at) / RFU TMPRSS4 (11748680_a_at) / Fold change /veh TMPRSS4 (11748680_a_at) / RFU FAM212B (11763350_a_at) / Fold change /veh FAM212B (11763350_a_at) / RFU PLEKHG5 (11743358_a_at) / Fold change /veh PLEKHG5 (11743358_a_at) / RFU ZSCAN30 (11745921_a_at) / Fold change /veh ZSCAN30 (11745921_a_at) / RFU CMKLR1 (11741424_a_at) / Fold change /veh CMKLR1 (11741424_a_at) / RFU LOC101060620 /// MAPK8IP1 (11723275_at) / Fold change /veh LOC101060620 /// MAPK8IP1 (11723275_at) / RFU SPTSSB (11747773_x_at) / Fold change /veh SPTSSB (11747773_x_at) / RFU PRSS12 (11739890_at) / Fold change /veh PRSS12 (11739890_at) / RFU BIN1 (11741810_x_at) / Fold change /veh BIN1 (11741810_x_at) / RFU WNT11 (11732464_a_at) / Fold change /veh WNT11 (11732464_a_at) / RFU C10orf10 (11716521_a_at) / Fold change /veh C10orf10 (11716521_a_at) / RFU C5orf56 (11738089_at) / Fold change /veh C5orf56 (11738089_at) / RFU CYB561 (11721691_x_at) / Fold change /veh CYB561 (11721691_x_at) / RFU ANKRD19P (11752326_a_at) / Fold change /veh ANKRD19P (11752326_a_at) / RFU OR2T12 /// OR2T33 /// OR2T8 (11738714_s_at) / Fold change /veh OR2T12 /// OR2T33 /// OR2T8 (11738714_s_at) / RFU VCAN (11748164_a_at) / Fold change /veh VCAN (11748164_a_at) / RFU JSRP1 (11732532_at) / Fold change /veh JSRP1 (11732532_at) / RFU KRTAP10-11 (11738290_x_at) / Fold change /veh KRTAP10-11 (11738290_x_at) / RFU MYO3A (11730013_a_at) / Fold change /veh MYO3A (11730013_a_at) / RFU EBF3 (11725865_a_at) / Fold change /veh EBF3 (11725865_a_at) / RFU CAMK2N1 (11719241_x_at) / Fold change /veh CAMK2N1 (11719241_x_at) / RFU C5orf56 (11738088_a_at) / Fold change /veh C5orf56 (11738088_a_at) / RFU OLFML3 (11715873_a_at) / Fold change /veh OLFML3 (11715873_a_at) / RFU LOC100653217 /// NTM (11731650_a_at) / Fold change /veh LOC100653217 /// NTM (11731650_a_at) / RFU MAPK11 (11762145_a_at) / Fold change /veh MAPK11 (11762145_a_at) / RFU FIZ1 (11724087_x_at) / Fold change /veh FIZ1 (11724087_x_at) / RFU OASL (11726364_x_at) / Fold change /veh OASL (11726364_x_at) / RFU SOX15 (11748057_x_at) / Fold change /veh SOX15 (11748057_x_at) / RFU CD79A (11719716_a_at) / Fold change /veh CD79A (11719716_a_at) / RFU HIST1H1D (11736915_at) / Fold change /veh HIST1H1D (11736915_at) / RFU CASKIN2 (11723855_a_at) / Fold change /veh CASKIN2 (11723855_a_at) / RFU LOC730098 (11760151_x_at) / Fold change /veh LOC730098 (11760151_x_at) / RFU OR4N2 (11742367_at) / Fold change /veh OR4N2 (11742367_at) / RFU PRRT2 (11749266_a_at) / Fold change /veh PRRT2 (11749266_a_at) / RFU SNX32 (11753110_a_at) / Fold change /veh SNX32 (11753110_a_at) / RFU CDHR5 (11726645_a_at) / Fold change /veh CDHR5 (11726645_a_at) / RFU RCAN1 (11760418_a_at) / Fold change /veh RCAN1 (11760418_a_at) / RFU FAM167A (11723789_a_at) / Fold change /veh FAM167A (11723789_a_at) / RFU FAM26E (11764081_at) / Fold change /veh FAM26E (11764081_at) / RFU ISYNA1 (11749810_s_at) / Fold change /veh ISYNA1 (11749810_s_at) / RFU ACY1 (11761880_at) / Fold change /veh ACY1 (11761880_at) / RFU 11764098_at / Fold change /veh 11764098_at / RFU SAMD14 (11745864_x_at) / Fold change /veh SAMD14 (11745864_x_at) / RFU NPB (11741838_a_at) / Fold change /veh NPB (11741838_a_at) / RFU TMPRSS6 (11731388_a_at) / Fold change /veh TMPRSS6 (11731388_a_at) / RFU KRTAP10-2 (11738614_at) / Fold change /veh KRTAP10-2 (11738614_at) / RFU ARHGAP8 /// PRR5-ARHGAP8 (11727945_x_at) / Fold change /veh ARHGAP8 /// PRR5-ARHGAP8 (11727945_x_at) / RFU KRTAP5-7 /// NADSYN1 (11734609_at) / Fold change /veh KRTAP5-7 /// NADSYN1 (11734609_at) / RFU RASL12 (11751679_a_at) / Fold change /veh RASL12 (11751679_a_at) / RFU CDKN2B (11736163_a_at) / Fold change /veh CDKN2B (11736163_a_at) / RFU PRF1 (11729649_at) / Fold change /veh PRF1 (11729649_at) / RFU, ZNF638 /// ZNF638-IT1 / Fold change vs veh, ZNF638 /// ZNF638-IT1 / RFU, PANK3 / Fold change vs veh, PANK3 / RFU, SH3YL1 / Fold change vs veh, SH3YL1 / RFU, ZEB2 / Fold change vs veh, ZEB2 / RFU, NRIP1 / Fold change vs veh, NRIP1 / RFU, PTTG1IP / Fold change vs veh, PTTG1IP / RFU, CAPN2 / Fold change vs veh, CAPN2 / RFU, MED14 / Fold change vs veh, MED14 / RFU, SNORA58 / Fold change vs veh, SNORA58 / RFU, C1orf63 / Fold change vs veh, C1orf63 / RFU, LRRFIP1 / Fold change vs veh, LRRFIP1 / RFU, NDUFAF7 / Fold change vs veh, NDUFAF7 / RFU, SLC12A2 / Fold change vs veh, SLC12A2 / RFU, IBTK / Fold change vs veh, IBTK / RFU, ESF1 / Fold change vs veh, ESF1 / Fold change vs veh, TMEM50B / RFU, TAOK1 / Fold change vs veh, TAOK1 / RFU, ACBD3 / Fold change vs veh, ACBD3 / RFU, TMA16 / Fold change vs veh, TMA16 / RFU, RWDD3 / Fold change vs veh, RWDD3 / RFU, BCAT1 / Fold change vs veh, BCAT1 / RFU, EDEM3 / Fold change vs veh, EDEM3 / RFU, TMEM33 / Fold change vs veh, TMEM33 / RFU, WDR75 / Fold change vs veh, WDR75 / RFU, AHCTF1 / Fold change vs veh, AHCTF1 / RFU, TFRC / Fold change vs veh, TFRC / RFU, ZDHHC17 / Fold change vs veh, ZDHHC17 / RFU, NOM1 / Fold change vs veh, NOM1 / RFU, ARL8B / Fold change vs veh, ARL8B / RFU, ZBTB11 / Fold change vs veh, ZBTB11 / RFU, TAMM41 / Fold change vs veh, TAMM41 / RFU, KIAA1704 /// LOC100996395 / Fold change vs veh, KIAA1704 /// LOC100996395 / RFU, ING1 / Fold change vs veh, ING1 / RFU, TRMT61B / Fold change vs veh, TRMT61B / RFU, FUBP3 / Fold change vs veh, FUBP3 / RFU, TP53 / Fold change vs veh, TP53 / RFU, TNKS2 / Fold change vs veh, TNKS2 / RFU, ZFP14 / Fold change vs veh, ZFP14 / RFU, ACTR2 / Fold change vs veh, ACTR2 / RFU, PPP3R1 / Fold change vs veh, PPP3R1 / RFU, PIK3R1 / Fold change vs veh, PIK3R1 / RFU, HNRNPA1 / Fold change vs veh, HNRNPA1 / RFU, RNF170 / Fold change vs veh, RNF170 / RFU, ZNF28 / Fold change vs veh, ZNF28 / RFU, RNGTT / Fold change vs veh, RNGTT / RFU, OGT / Fold change vs veh, OGT / RFU, BRD1 / Fold change vs veh, BRD1 / RFU, MARS / Fold change vs veh, MARS / RFU, ZNF655 / Fold change vs veh, ZNF655 / RFU, FAHD1 / Fold change vs veh, FAHD1 / RFU, BDP1 / Fold change vs veh, BDP1 / RFU, LRRCC1 / Fold change vs veh, LRRCC1 / RFU, ARID1A / Fold change vs veh, ARID1A / RFU, ZNF146 / Fold change vs veh, ZNF146 / RFU, ZNF330 / Fold change vs veh, ZNF330 / RFU, GPN3 / Fold change vs veh, GPN3 / RFU, C9orf123 / Fold change vs veh, C9orf123 / RFU, N4BP2L2 / Fold change vs veh, N4BP2L2 / RFU, ARFIP1 / Fold change vs veh, ARFIP1 / RFU, FAM179B / Fold change vs veh, FAM179B / RFU, BCL10 / Fold change vs veh, BCL10 / RFU, UHRF1BP1L / Fold change vs veh, UHRF1BP1L / RFU, BET1 / Fold change vs veh, BET1 / RFU, CNOT2 / Fold change vs veh, CNOT2 / RFU, ZNF268 / Fold change vs veh, ZNF268 / Fold change vs veh, ZNF507 / RFU, DGCR2 / Fold change vs veh, DGCR2 / RFU, WDSUB1 / Fold change vs veh, WDSUB1 / Fold change vs veh, HSP90B1 /// MIR3652 / RFU, ADSS / Fold change vs veh, ADSS / RFU, GK / Fold change vs veh, GK / RFU, ZNF148 / Fold change vs veh, ZNF148 / RFU, TAF9 / Fold change vs veh, TAF9 / RFU, SLC1A5 / Fold change vs veh, SLC1A5 / RFU, SLMO2 / Fold change vs veh, SLMO2 / RFU, ABCC4 / Fold change vs veh, ABCC4 / RFU, LOC101060439 /// RAP1B / Fold change vs veh, LOC101060439 /// RAP1B / RFU, RFX7 / Fold change vs veh, RFX7 / RFU, GTPBP10 / Fold change vs veh, GTPBP10 / RFU, CNEP1R1 / Fold change vs veh, CNEP1R1 / RFU, BIVM-ERCC5 /// ERCC5 / Fold change vs veh, BIVM-ERCC5 /// ERCC5 / RFU, ILF3 / Fold change vs veh, ILF3 / RFU 11762660_at / Fold change /veh 11762660_at / RFU VCAN (11757783_s_at) / Fold change /veh VCAN (11757783_s_at) / RFU DDX43 (11728927_at) / Fold change /veh DDX43 (11728927_at) / RFU KRT8 (11758188_x_at) / Fold change /veh KRT8 (11758188_x_at) / RFU NKD1 (11759106_at) / Fold change /veh NKD1 (11759106_at) / RFU SRD5A1 (11742802_a_at) / Fold change /veh SRD5A1 (11742802_a_at) / RFU TPSAB1 /// TPSB2 (11721975_s_at) / Fold change /veh TPSAB1 /// TPSB2 (11721975_s_at) / RFU GSTM3 (11746129_a_at) / Fold change /veh GSTM3 (11746129_a_at) / RFU IL23R (11737362_x_at) / Fold change /veh IL23R (11737362_x_at) / RFU TMEM51 (11727254_a_at) / Fold change /veh TMEM51 (11727254_a_at) / RFU PIWIL2 (11732686_x_at) / Fold change /veh PIWIL2 (11732686_x_at) / RFU ORM1 (11744905_x_at) / Fold change /veh ORM1 (11744905_x_at) / RFU CCDC152 (11743942_at) / Fold change /veh CCDC152 (11743942_at) / RFU ECM1 (11717891_a_at) / Fold change /veh ECM1 (11717891_a_at) / RFU IL23R (11748794_a_at) / Fold change /veh IL23R (11748794_a_at) / RFU TNFAIP8L3 (11732012_x_at) / Fold change /veh TNFAIP8L3 (11732012_x_at) / RFU MBOAT4 (11741988_at) / Fold change /veh MBOAT4 (11741988_at) / RFU 11764193_at / Fold change /veh 11764193_at / RFU TMEM53 (11763286_at) / Fold change /veh TMEM53 (11763286_at) / RFU MAGEB2 (11727129_at) / Fold change /veh MAGEB2 (11727129_at) / RFU TMEM200A (11744735_a_at) / Fold change /veh TMEM200A (11744735_a_at) / RFU CCDC152 (11751479_a_at) / Fold change /veh CCDC152 (11751479_a_at) / RFU FAM211A (11726209_a_at) / Fold change /veh FAM211A (11726209_a_at) / RFU RGS16 (11746705_a_at) / Fold change /veh RGS16 (11746705_a_at) / RFU VCAN (11755009_s_at) / Fold change /veh VCAN (11755009_s_at) / RFU RHOB (11743442_s_at) / Fold change /veh RHOB (11743442_s_at) / RFU RGS16 (11720943_a_at) / Fold change /veh RGS16 (11720943_a_at) / RFU RGS16 (11720944_at) / Fold change /veh RGS16 (11720944_at) / RFU, VPS4B / Fold change vs veh, VPS4B / RFU, CREB1 / Fold change vs veh, CREB1 / RFU, DNAJC13 / Fold change vs veh, DNAJC13 / RFU, GNAQ / Fold change vs veh, GNAQ / RFU, CDK5R1 / Fold change vs veh, CDK5R1 / RFU, ZRANB3 / Fold change vs veh, ZRANB3 / RFU, CUL4A / Fold change vs veh, CUL4A / RFU, CCNY / Fold change vs veh, CCNY / RFU, UFL1 / Fold change vs veh, UFL1 / RFU, COG3 / Fold change vs veh, COG3 / RFU, DIAPH2 / Fold change vs veh, DIAPH2 / RFU, SKA2 / Fold change vs veh, SKA2 / RFU, AFF3 / Fold change vs veh, AFF3 / RFU, LMF1 / Fold change vs veh, LMF1 / RFU, IPO11 / Fold change vs veh, IPO11 / RFU, DFFB / Fold change vs veh, DFFB / RFU, FOXP1 / Fold change vs veh, FOXP1 / RFU, CARD8 / Fold change vs veh, CARD8 / RFU, STRN3 / Fold change vs veh, STRN3 / RFU, ADK / Fold change vs veh, ADK / RFU, RASSF2 / Fold change vs veh, RASSF2 / RFU, WIPF1 / Fold change vs veh, WIPF1 / RFU, LARP1B / Fold change vs veh, LARP1B / RFU, RASA1 / Fold change vs veh, RASA1 / RFU, RB1 / Fold change vs veh, RB1 / RFU, PPFIA1 / Fold change vs veh, PPFIA1 / RFU, MAT2A / Fold change vs veh, MAT2A / RFU, CCT5 / Fold change vs veh, CCT5 / RFU, WDR92 / Fold change vs veh, WDR92 / RFU, CUX1 / Fold change vs veh, CUX1 / RFU, TTC7A / Fold change vs veh, TTC7A / RFU, TMEM135 / Fold change vs veh, TMEM135 / RFU, DEPTOR / Fold change vs veh, DEPTOR / RFU, CPM / Fold change vs veh, CPM / RFU, DNAJB6 / Fold change vs veh, DNAJB6 / RFU, CACNA2D3 / Fold change vs veh, CACNA2D3 / RFU, DTX4 / Fold change vs veh, DTX4 / RFU, TFCP2 / Fold change vs veh, TFCP2 / RFU, GMCL1 /// GMCL1P1 / Fold change vs veh, GMCL1 /// GMCL1P1 / RFU, AEBP2 / Fold change vs veh, AEBP2 / RFU, SNHG1 /// SNORD22 /// SNORD25 /// SNORD26 /// SNORD27 /// SNORD28 /// SNORD29 /// SNORD31 / Fold change vs veh, SNHG1 /// SNORD22 /// SNORD25 /// SNORD26 /// SNORD27 /// SNORD28 /// SNORD29 /// SNORD31 / Fold change (Aza/veh), C12orf56 (ProbeSet 11735607_a_at) / Fold change (ACY-1035/veh), C12orf56 (ProbeSet 11735607_a_at) / Fold change (Aza/veh), FGFR1OP (ProbeSet 11751329_s_at) / Fold change (ACY-1035/veh), FGFR1OP (ProbeSet 11751329_s_at) / Fold change (Aza/veh), VPS36 (ProbeSet 11739960_a_at) / Fold change (ACY-1035/veh), VPS36 (ProbeSet 11739960_a_at) / RFU SYPL1 (11715823_x_at) / Fold change /veh SYPL1 (11715823_x_at) / RFU IGFBP7 (11715501_s_at) / Fold change /veh IGFBP7 (11715501_s_at) / RFU REEP3 (11722064_at) / Fold change /veh REEP3 (11722064_at) / RFU IGLL1 (11728026_x_at) / Fold change /veh IGLL1 (11728026_x_at): dose or concentration left out as unconfirmed. The settings on record: MV-4-11 cells, 48 hours. The format is cell-based, human.

As to `Nc1ncn([C@@H]2O[C@H](CO)[C@@H](O)[C@H]2O)c(=O)n1` [azacitidine], the “RFU PRF1 (11729649_at)” value stood at 19.15 RFU.
